Assay results from patent US20060128724A1, “Pyrazole-substituted aminoheteroaryl compounds as protein kinase inhibitors” (AGOURON PHARMACEUTICALS, INC., priority 2004, published 2006).

molecular target: T1, c-MET (HGFR) (Homo sapiens, UniProt P08581); experiment: HGFR Continuous-Coupled Spectrophotometric Assay; format: biochemical; conditions: Met-2 substrate peptide, 50 nM HGFR, 37° C.; read-out: Met Ki
T1 construct: purchased Upstate 14-526
Method in brief: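 Tyrosine kinase activity of 50 nM HGFR on the activation-loop Met-2 peptide, followed as NADH consumption at 340 nm over 10 min at 37 °C in a pyruvate kinase/LDH coupled system, HEPES pH 7.5 buffer with MgCl2 and DTT.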

T1 sequence (P08581 974-1390 limits assumed): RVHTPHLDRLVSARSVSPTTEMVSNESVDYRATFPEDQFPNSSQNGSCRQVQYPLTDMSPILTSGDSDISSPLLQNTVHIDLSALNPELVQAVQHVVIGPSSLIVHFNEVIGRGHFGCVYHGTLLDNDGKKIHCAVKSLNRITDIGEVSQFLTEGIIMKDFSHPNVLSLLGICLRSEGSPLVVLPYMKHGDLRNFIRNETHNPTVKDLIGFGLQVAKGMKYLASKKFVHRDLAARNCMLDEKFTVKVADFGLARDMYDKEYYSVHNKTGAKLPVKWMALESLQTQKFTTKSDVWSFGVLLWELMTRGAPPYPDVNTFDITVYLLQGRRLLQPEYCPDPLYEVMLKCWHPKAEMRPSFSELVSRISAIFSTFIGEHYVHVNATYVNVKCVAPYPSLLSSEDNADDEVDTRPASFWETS

| Ki [nM] | SMILES |
| --- | --- |
| 16 | CCS(=O)(=O)N1CCC(n2cc(-c3cnc(N)c(OC(C)c4c(Cl)ccc(F)c4Cl)c3)cn2)CC1 (stereo not drawn) [Example 121] |

same assay, conditions: Met-2 substrate peptide, 50 nM HGFR, 37° C.; read-out: c-Met Ki

| Ki [nM] | SMILES |
| --- | --- |
| 2050 | CCOC(=O)c1cnn(-c2cnc(N)c(OC(C)c3c(Cl)ccc(F)c3Cl)c2)c1 (stereo not drawn) [Example 80, 1-{6-Amino-5-[1-(2,6-dichloro-3-fluoro-phenyl)-ethoxy]-pyridin-3-yl}-1H-pyrazole-4-carboxylic acid ethyl ester] |
| 56 | CC(Oc1cc(-c2cnn(CC3CCNCC3)c2)cnc1N)c1c(Cl)ccc(F)c1Cl (stereo not drawn) [Example 81, 3-[1-(2,6-Dichloro-3-fluoro-phenyl)-ethoxy]-5-(1-piperidin-4-ylmethyl-1H-pyrazol-4-yl)-pyridin-2-ylamine] |
| 47 | CC(Oc1cc(-c2cnn(CCN3CCNCC3)c2)cnc1N)c1c(Cl)ccc(F)c1Cl (stereo not drawn) [Example 82, 3-[1-(2,6-Dichloro-3-fluoro-phenyl)-ethoxy]-5-[1-(2-piperazin-1-yl-ethyl)-1H-pyrazol-4-yl]-pyridin-2-ylamine] |
| 46 | CC(Oc1cc(-c2cnn(CCO)c2)cnc1N)c1c(Cl)ccc(F)c1Cl (stereo not drawn) [Example 83, 2-(4-{6-Amino-5-[1-(2,6-dichloro-3-fluoro-phenyl)-ethoxy]-pyridin-3-yl}-pyrazol-1-yl)-ethanol] |
| 61 | CC(Oc1cc(-c2cnn(CC3COCO3)c2)cnc1N)c1c(Cl)ccc(F)c1Cl (stereo not drawn) [Example 84, 3-[1-(2,6-Dichloro-3-fluoro-phenyl)-ethoxy]-5-(1-[1,3]dioxolan-4-ylmethyl-1H-pyrazol-4-yl)-pyridin-2-ylamine] |
| 30 | CC(Oc1cc(-c2cnn(CC3CCN(C(=O)CO)CC3)c2)cnc1N)c1c(Cl)ccc(F)c1Cl (stereo not drawn) [Example 85, 1-[4-(4-{6-Amino-5-[1-(2,6-dichloro-3-fluoro-phenyl)-ethoxy]-pyridin-3-yl}-pyrazol-1-ylmethyl)-piperidin-1-yl]-2-hydroxy-ethanone] |
| 34 | COC(=O)C1CC(n2cc(-c3cnc(N)c(OC(C)c4c(Cl)ccc(F)c4Cl)c3)cn2)CN1 (stereo not drawn) [Example 88, 4-(4-{6-Amino-5-[1-(2,6-dichloro-3-fluoro-phenyl)-ethoxy]-pyridin-3-yl}-pyrazol-1-yl)-pyrrolidine-2-carboxylic acid methyl ester] |
| 24 | CC(Oc1cc(-c2cnn(CC3CCN(C)CC3)c2)cnc1N)c1c(Cl)ccc(F)c1Cl (stereo not drawn) [Example 89, 3-[1-(2,6-Dichloro-3-fluoro-phenyl)-ethoxy]-5-[1-(1-methyl-piperidin-4-ylmethyl)-1H-pyrazol-4-yl]-pyridin-2-ylamine] |
| 34 | CNC(=O)C1CC(n2cc(-c3cnc(N)c(OC(C)c4c(Cl)ccc(F)c4Cl)c3)cn2)CN1 (stereo not drawn) [Example 90, 4-(4-{6-Amino-5-[1-(2,6-dichloro-3-fluoro-phenyl)-ethoxy]-pyridin-3-yl}-pyrazol-1-yl)-pyrrolidine-2-carboxylic acid methylamide] |
| 44 | CC(Oc1cc(-c2cnn(C3CNC(C(N)=O)C3)c2)cnc1N)c1c(Cl)ccc(F)c1Cl (stereo not drawn) [Example 91, 4-(4-{6-Amino-5-[1-(2,6-dichloro-3-fluoro-phenyl)-ethoxy]-pyridin-3-yl}pyrazol-1-yl)-pyrrolidine-2-carboxylic acid amide] |
| 69 | Cc1noc(C)c1Cn1cc(-c2cnc(N)c(OC(C)c3c(Cl)ccc(F)c3Cl)c2)cn1 (stereo not drawn) [Example 93, 3-[1-(2,6-dichloro-3-fluorophenyl)ethoxy]-5-{1-[(3,5-dimethylisoxazol-4-yl)methyl]-1H-pyrazol-4-yl}pyridin-2-amine] |
| 35 | CC(Oc1cc(-c2cnn(C3CCN(C(=O)OC(C)(C)C)CC3)c2)cnc1N)c1c(Cl)ccc(F)c1Cl (stereo not drawn) [Example 94, tert-butyl 4-(4-{6-amino-5-[1-(2,6-dichloro-3-fluorophenyl)ethoxy]pyridin-3-yl}-1H-pyrazol-1-yl)piperidine-1-carboxylate] |
| 10 | CC(Oc1cc(-c2cnn(C3CCN(C(=O)OCCO)CC3)c2)cnc1N)c1c(Cl)ccc(F)c1Cl (stereo not drawn) [Example 95, 2-hydroxyethyl 4-(4-{6-amino-5-[1-(2,6-dichloro-3-fluorophenyl)ethoxy]pyridin-3-yl}-1H-pyrazol-1-yl)piperidine-1-carboxylate] |
| 30 | CC(Oc1cc(-c2cnn(C3CN(C(C)C)C3)c2)cnc1N)c1c(Cl)ccc(F)c1Cl (stereo not drawn) [Example 97, 3-[1-(2,6-dichloro-3-fluorophenyl)ethoxy]-5-[1-(1-isopropylazetidin-3-yl)-1H-pyrazol-4-yl]pyridin-2-amine] |
| 7 | CC(Oc1cc(-c2cnn(C3CCN(CC(N)=O)CC3)c2)cnc1N)c1c(Cl)ccc(F)c1Cl (stereo not drawn) [Example 98, 2-[4-(4-{6-amino-5-[1-(2,6-dichloro-3-fluorophenyl)ethoxy]pyridin-3-yl}-1H-pyrazol-1-yl)piperidin-1-yl]acetamide] |
| 40 | CC(Oc1cc(-c2cnn(Cc3nn[nH]n3)c2)cnc1N)c1c(Cl)ccc(F)c1Cl (stereo not drawn) [Example 100, 3-[1-(2,6-dichloro-3-fluorophenyl)ethoxy]-5-[1-(2H-tetrazol-5-ylmethyl)-1H-pyrazol-4-yl]pyridin-2-amine] |
| 19 | CCOC(=O)N1CCC(n2cc(-c3cnc(N)c(OC(C)c4c(Cl)ccc(F)c4Cl)c3)cn2)CC1 (stereo not drawn) [Example 101, ethyl 4-(4-{6-amino-5-[1-(2,6-dichloro-3-fluorophenyl)ethoxy]pyridin-3-yl}-1H-pyrazol-1-yl)piperidine-1-carboxylate] |
| 50 | CC(Oc1cc(-c2cnn(C3CN(CCO)C3)c2)cnc1N)c1c(Cl)ccc(F)c1Cl (stereo not drawn) [Example 102, 2-[3-(4-{6-amino-5-[1-(2,6-dichloro-3-fluorophenyl)ethoxy]pyridin-3-yl}11H-pyrazol-1-yl)azetidin-1-yl]ethanol] |
| 70 | COCCN1CC(n2cc(-c3cnc(N)c(OC(C)c4c(Cl)ccc(F)c4Cl)c3)cn2)C1 (stereo not drawn) [Example 103, 3-[1-(2,6-dichloro-3-fluorophenyl)ethoxy]-5-{1-[1-(2-methoxyethyl)azetidin-3-yl]-1H-pyrazol-4-yl}-pyridin-2-amine] |
| 36 | CC(Oc1cc(-c2cnn(C3CN(S(C)(=O)=O)C3)c2)cnc1N)c1c(Cl)ccc(F)c1Cl (stereo not drawn) [Example 104, 3-[1-(2,6-dichloro-3-fluorophenyl)ethoxy]-5-{1-[1-(methylsulfonyl)azetidin-3-yl]-1H-pyrazol-4-yl}pyridin-2-amine] |
| 22 | CC(Oc1cc(-c2cnn(C3CN(C(=O)CO)C3)c2)cnc1N)c1c(Cl)ccc(F)c1Cl (stereo not drawn) [Example 105, 2-[3-(4-{6-amino-5-[1-(2,6-dichloro-3-fluorophenyl)ethoxy]pyridin-3-yl}1H-pyrazol-1-yl)azetidin-1-yl]-2-oxoethanol] |
| 29 | CC(=O)N1CC(Cn2cc(-c3cnc(N)c(OC(C)c4c(Cl)ccc(F)c4Cl)c3)cn2)C1 (stereo not drawn) [Example 106, 5-{1-[(1-acetylazetidin-3-yl)methyl]-1H-pyrazol-4-yl}-3-[1-(2,6-dichloro-3-fluorophenyl)ethoxy]pyridin-2-amine] |
| 44 | CC(Oc1cc(-c2cnn(CC3CN(S(C)(=O)=O)C3)c2)cnc1N)c1c(Cl)ccc(F)c1Cl (stereo not drawn) [Example 107, 3-[1-(2,6-dichloro-3-fluorophenyl)ethoxy]-5-(1-{[1-(methylsulfonyl)azetidin-3-yl]methyl}-1H-pyrazol-4-yl)pyridin-2-amine] |
| 57 | CC(Oc1cc(-c2cnn(CC3CN(C(C)C)C3)c2)cnc1N)c1c(Cl)ccc(F)c1Cl (stereo not drawn) [Example 108, 3-[1-(2,6-dichloro-3-fluorophenyl)ethoxy]-5-{1-[(1-isopropylazetidin-3-yl)methyl]-1H-pyrazol-4-yl}pyridin-2-amine] |
| 21 | CC(Oc1cc(-c2cnn(C3CN(CC(N)=O)C3)c2)cnc1N)c1c(Cl)ccc(F)c1Cl (stereo not drawn) [Example 109, 2-[3-(4-{6-amino-5-[1-(2,6-dichloro-3-fluorophenyl)ethoxy]pyridin-3-yl}1H-pyrazol-1-yl)azetidin-1-yl]acetamide] |
| 32 | CC(=O)N1CC(n2cc(-c3cnc(N)c(OC(C)c4c(Cl)ccc(F)c4Cl)c3)cn2)C1 (stereo not drawn) [Example 110, 5-[1-(1-acetylazetidin-3-yl)-1H-pyrazol-4-yl]-3-[1-(2,6-dichloro-3-fluorophenyl)ethoxy]pyridin-2-amine] |
| 37 | CC(Oc1cc(-c2cnn(CC3CN(CC#N)C3)c2)cnc1N)c1c(Cl)ccc(F)c1Cl (stereo not drawn) [Example 111, {3-[(4-{6-amino-5-[1-(2,6-dichloro-3-fluorophenyl)ethoxy]pyridin-3-yl}-1H-pyrazol-1-yl)methyl]azetidin-1-yl}acetonitrile] |
| 47 | CC(Oc1cc(-c2cnn(CC3CN(CC4CC4)C3)c2)cnc1N)c1c(Cl)ccc(F)c1Cl (stereo not drawn) [Example 112, 5-(1-{[1-(cyclopropylmethyl)azetidin-3-yl]methyl}1H-pyrazol-4-yl)-3-[1-(2,6-dichloro-3-fluorophenyl)ethoxy]pyridin-2-amine] |
| 17 | CC(Oc1cc(-c2cnn(C3CCS(=O)(=O)CC3)c2)cnc1N)c1c(Cl)ccc(F)c1Cl (stereo not drawn) [Example 116, 3-[1-(2,6-dichloro-3-fluorophenyl)ethoxy]-5-[1-(1,1-dioxidotetrahydro-2H-thiopyran-4-yl)-1H-pyrazol-4-yl]pyridin-2-amine] |
| 14 | CC(Oc1cc(-c2cnn(C3CCCS(=O)(=O)C3)c2)cnc1N)c1c(Cl)ccc(F)c1Cl (stereo not drawn) [Example 117, 3-[1-(2,6-dichloro-3-fluorophenyl)ethoxy]-5-[1-(1,1-dioxidotetrahydro-2H-thiopyran-3-yl)-1H-pyrazol-4-yl]pyridin-2-amine] |

| SMILES | Ki [nM] |
| --- | --- |
| CC(Oc1cc(-c2cnn(C3CC4CCC(C3)N4)c2)cnc1N)c1c(Cl)ccc(F)c1Cl (stereo not drawn) [Example 99, 5-[1-(8-azabicyclo[3.2.1]oct-3-yl)-1H-pyrazol-4-yl]-3-[1-(2,6-dichloro-3-fluorophenyl)ethoxy]pyridin-2-amine] | 5 |
| CC(Oc1cc(-c2cnn(C3CC4CCC(C3)N4C)c2)cnc1N)c1c(Cl)ccc(F)c1Cl (stereo not drawn) [Example 115, 3-[1-(2,6-dichloro-3-fluorophenyl)ethoxy]-5-[1-(8-methyl-8-azabicyclo[3.2.1]oct-3-yl)-1H-pyrazol-4-yl]pyridin-2-amine] | 9 |
